Source: patent publication US20210154188A1, “ALK5 INHIBITORS, CONJUGATES, AND USES THEREOF” (SILVERBACK THERAPEUTICS, INC., priority 2018, published 2021)

Assays:
[1] = target: T1, ALK5 (Homo sapiens, UniProt P36897); experiment: ALK5 enzyme inhibition assay (33P-ATP filter-binding, Reaction Biology Corp); type: biochemical; conditions: casein substrate 1 mg/mL, 10 uM ATP
T1 construct: purchased Reaction Biology Corp (Malvern, PA)
T1 sequence (P36897 34-503): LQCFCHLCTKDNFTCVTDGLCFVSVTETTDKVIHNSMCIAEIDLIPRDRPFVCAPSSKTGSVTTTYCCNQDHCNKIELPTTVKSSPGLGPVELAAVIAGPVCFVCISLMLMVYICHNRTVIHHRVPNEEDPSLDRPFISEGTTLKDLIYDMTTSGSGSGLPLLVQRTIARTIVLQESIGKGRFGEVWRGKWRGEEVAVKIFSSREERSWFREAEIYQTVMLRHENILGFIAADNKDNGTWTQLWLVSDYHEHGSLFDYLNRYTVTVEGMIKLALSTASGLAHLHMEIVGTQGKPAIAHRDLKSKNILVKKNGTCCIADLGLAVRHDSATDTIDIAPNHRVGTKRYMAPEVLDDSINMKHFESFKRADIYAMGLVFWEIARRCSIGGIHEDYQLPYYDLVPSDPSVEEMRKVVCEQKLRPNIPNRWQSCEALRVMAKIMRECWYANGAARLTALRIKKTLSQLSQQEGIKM
Procedure: ALK5 enzyme inhibition assays were performed by Reaction Biology Corp (Malvern, PA). 1 mg/mL of peptide subtrate (casein) and 10 uM ATP were prepared in a mixture of fresh reaction buffer. The kinase was delivered into the substrate solution which was gently mixed. Compounds in 100% DMSO were added to the kinase reaction mixture by Acoustic technology (Echo550; nanoliter range) and the mixture was incubated for 20 min at room temperature. ^33P-ATP (Specific activity 10 uCi/uL) was added into the reaction mixture to initiate the reaction and the reaction mixture was incubated for 2 hours at room temperature. Radioactivity was detected by filter-binding method and kinase activity data were expressed as the percent remaining kinase activity in test samples compared to vehicle (dimethyl sulfoxide) reactions. IC50 values and curve fits were obtained using Prism (GraphPad Software).

[2] = tested on: TGFb/SMAD Signaling Pathway SBE reporter cell line; experiment: TGFb reporter assay (luciferase); type: cell-based; conditions: 5-6 h preincubation, then TGFb, 18 h, luminescence
Procedure: TGFb/SMAD Signaling Pathway SBE reporter cell line was obtained from BPS Bioscience. Cells were passed/expanded/stored in liquid nitrogen per supplier's instruction with the exception that growth media was changed to DMEM-C with Geneticin (DMEM supplemented with 10% fetal bovine serum, 1× NEAA, 1 mM Pyruvate, 2 mM glutamine, 50 μg/mL penicillin, 50 U/mL streptomycin and 400 ug/mL of Geneticin). The assay media was MEM supplemented with 0.5% fetal bovine serum, 1× NEAA, 1 mM Pyruvate, 50 μg/mL penicillin and 50 U/mL streptomycin.
Reporter cells were harvested from the tissue culture flasks by incubation in small quantity of Versene at room temperature for three to five minutes after the media in the flask was removed and cells rinsed with PBS. Cells were counted and diluted in the assay media at ˜0.8×10^6 cells/mL then 50 uL/well were added to 96-well assay plate. Test samples (at desired concentrations diluted in assay media) were added to assay plate containing the 50 uL/well of cells (or media only), 50 uL per well, and incubated for 5-6 hours at 37° C. in a 5% CO2 humidified incubator. After that time, 15 uL of TGFb diluted to 12.5 ng/mL in the assay media was added to the plate. Controls included TGFb titration (from 25 to 0 ng/mL) without inhibitors, and media only (without cells, inhibitor or TGFb). Plates were incubated at 37° C. in a 5% CO2 humidified incubator for 18 h. Luciferase substrate solution was subsequently added at 75 uL per well, incubated in dark with shaking at room temperature for 10 min, and luminescence was measured using a luminometer.

IC50 [1] [µM]	IC50 [2] [µM]	SMILES
1 to 10	0.1 to 1	Cc1cccc(-c2nc(CN3CCCCC3)[nH]c2-c2ccn3ncnc3c2)n1 [Compound 1.35, 7-(4-(6-methylpyridin-2-yl)-2-(piperidin-1-ylmethyl)-1H-imidazol-5-yl)-[1,2,4]triazolo[1,5-a]pyridine]
0.1 to 1	0.1 to 1	Cc1cccc(-c2nc(CN3CCc4ccccc4C3)[nH]c2-c2ccn3ncnc3c2)n1 [Compound 1.40, 2-((5-([1,2,4]triazolo[1,5-a]pyridin-7-yl)-4-(6-methylpyridin-2-yl)-1H-imidazol-2-yl)methyl)-1,2,3,4-tetrahydroisoquinoline]
0.1 to 1	0.1 to 1	Cc1cccc(-c2nc(CNCc3ccc4c(c3)OCO4)[nH]c2-c2ccc3ncnn3c2)n1 [Compound 1.41, 1-(5-([1,2,4]triazolo[1,5-a]pyridin-6-yl)-4-(6-methylpyridin-2-yl)-1H-imidazol-2-yl)-N-(benzo[d][1,3]dioxol-5-ylmethyl)methanamine]
0.1 to 1	0.01 to 0.1	Cc1cccc(-c2nc(CNCC3CCCCC3)[nH]c2-c2ccc3ncnn3c2)n1 [Compound 1.42, 1-(5-([1,2,4]triazolo[1,5-a]pyridin-6-yl)-4-(6-methylpyridin-2-yl)-1H-imidazol-2-yl)-N-(cyclohexylmethyl)methanamine]
0.01 to 0.1	0.01 to 0.1	Cc1cccc(-c2nc(CN[C@H]3c4ccccc4C[C@H]3O)[nH]c2-c2ccc3ncnn3c2)n1 [Compound 1.43, (1S,2R)-1-(((5-([1,2,4]triazolo[1,5-a]pyridin-6-yl)-4-(6-methylpyridin-2-yl)-1H-imidazol-2-yl)methyl)amino)-2,3-dihydro-1H-inden-2-ol]
0.1 to 1	0.01 to 0.1	Cc1cccc(-c2nc(CN[C@@H]3c4ccccc4C[C@@H]3O)[nH]c2-c2ccc3ncnn3c2)n1 [Compound 1.44, (1R,2S)-1-(((5-([1,2,4]triazolo[1,5-a]pyridin-6-yl)-4-(6-methylpyridin-2-yl)-1H-imidazol-2-yl)methyl)amino)-2,3-dihydro-1H-inden-2-ol]
0.1 to 1	0.01 to 0.1	Cc1cccc(-c2nc(CN[C@H]3c4ccccc4C[C@@H]3O)[nH]c2-c2ccc3ncnn3c2)n1 [Compound 1.45, (1S,2S)-1-(((5-([1,2,4]triazolo[1,5-a]pyridin-6-yl)-4-(6-methylpyridin-2-yl)-1H-imidazol-2-yl)methyl)amino)-2,3-dihydro-1H-inden-2-ol]
0.1 to 1	0.01 to 0.1	Cc1cccc(-c2nc(CN[C@@H]3c4ccccc4C[C@H]3O)[nH]c2-c2ccc3ncnn3c2)n1 [Compound 1.46, (1R,2R)-1-(((5-([1,2,4]triazolo[1,5-a]pyridin-6-yl)-4-(6-methylpyridin-2-yl)-1H-imidazol-2-yl)methyl)amino)-2,3-dihydro-1H-inden-2-ol]
0.1 to 1	0.01 to 0.1	Cc1cccc(-c2nc(CN3Cc4ccccc4C3=O)[nH]c2-c2ccc3ncnn3c2)n1 [Compound 1.56, 2-((5-([1,2,4]triazolo[1,5-a]pyridin-6-yl)-4-(6-methylpyridin-2-yl)-1H-imidazol-2-yl)methyl)isoindolin-1-one]
0.01 to 0.1	0.01 to 0.1	Cc1cccc(-c2nc(CNCc3cccc4ccccc34)[nH]c2-c2ccc3ncnn3c2)n1 [Compound 1.57, 1-(5-([1,2,4]triazolo[1,5-a]pyridin-6-yl)-4-(6-methylpyridin-2-yl)-1H-imidazol-2-yl)-N-(naphthalen-1-ylmethyl)methanamine]
0.1 to 1	0.1 to 1	Cc1cccc(-c2nc(CNCc3ccc4ccccc4c3)[nH]c2-c2ccc3ncnn3c2)n1 [Compound 1.58, 1-(5-([1,2,4]triazolo[1,5-a]pyridin-6-yl)-4-(6-methylpyridin-2-yl)-1H-imidazol-2-yl)-N-(naphthalen-2-ylmethyl)methanamine]
0.01 to 0.1	0.01 to 0.1	Cc1cccc(-c2nc(CNCCc3cccc4ccccc34)[nH]c2-c2ccc3ncnn3c2)n1 [Compound 1.59, N-((5-([1,2,4]triazolo[1,5-a]pyridin-6-yl)-4-(6-methylpyridin-2-yl)-1H-imidazol-2-yl)methyl)-2-(naphthalen-1-yl)ethan-1-amine]
0.1 to 1	0.01 to 0.1	Cc1cccc(-c2nc(CNCCc3ccnc4ccccc34)[nH]c2-c2ccc3ncnn3c2)n1 [Compound 1.60, N-((5-([1,2,4]triazolo[1,5-a]pyridin-6-yl)-4-(6-methylpyridin-2-yl)-1H-imidazol-2-yl)methyl)-2-(quinolin-4-yl)ethan-1-amine]
0.1 to 1	0.01 to 0.1	Cc1cccc(-c2nc(CNCCc3cccc4ncccc34)[nH]c2-c2ccc3ncnn3c2)n1 [Compound 1.61, N-((5-([1,2,4]triazolo[1,5-a]pyridin-6-yl)-4-(6-methylpyridin-2-yl)-1H-imidazol-2-yl)methyl)-2-(quinolin-5-yl)ethan-1-amine]
